Assay results taken from patent publication US11766430B2, “Methods of using a phenoxypropylamine compound to treat pain” (Minerva Neurosciences, Inc., priority 2018, dated 2023).
“And” between values parts separate entries of the source, which are not always exact repeats. Identical values can stand only once.

Tested on: carrageenan-induced mechanical hyperalgesia in rats
Experiment: Carrageenan-induced mechanical hyperalgesia, paw pressure test, time course to 240 min (Example 2)
Format: in vivo, male Sprague-Dawley rats
Experimental: In this model, inflammation is induced by intraplantar injection of carrageenan (2%) into the right hindpaw of the rat. Three hours later, reaction thresholds are measured using the paw pressure test. Pressure is gradually applied to both hind paws (inflamed and control) of the rat, and reaction thresholds are determined as the pressure (g) required to elicit paw withdrawal or vocalization. Morphine (3 mg/kg, s.c.) was used as a positive control.
The experiments in this study used fifty (50) male Sprague-Dawley rats (SPF status, Janvier, France), each weighing 204-260 grams. The rats were housed in a temperature (20-24° C.) and relative humidity (45%-65%) controlled room and acclimated to an artificial day/night cycle of 12 hours light (6.30 a.m. to 6.30 p.m.)/12 hours darkness. Rats had free access to sterilized tap water and were fed ad libitum with pelleted complete diet (reference A04, S.A.F.E.). Rats were housed 4 per cage (cages Type E) and were acclimated for a period of at least 5 days before any testing. Each rat was identified by tail markings. Based on the SPF status of the animal facilities, there is no reason to expect that contaminants were present in the food, water or bedding, at levels capable of interfering with the results of the tests.
Pain Test: Static mechanical hyperalgesia was assessed using the Paw Pressure test or Randall & Selitto test (Randall, L. O. and Selitto, J. J., A method for measurement of analgesic activity on inflamed tissue, Arch Int Pharmacodyn, 1957(111): 409-419). This test requires the application of an increasing pressure on the hind paws between a flat surface and a blunt pointer. This test is usually used with animals with one hind paw inflamed by an injection or injured by ligation, and one normal hind paw, to evaluate drugs for analgesic action. The apparatus exerts a steadily increasing force and reaction threshold is determined as the pressure (g) required to elicit paw withdrawal and/or vocalization. In the experiment, animals were gently handled by the experimenter and static mechanical hyperalgesia was assessed. Each reaction threshold measurement was done for both hind paws.
Five (5) experimental groups of 10 rats each were used. Each group was first injected with of 100 μL of a 2% carrageenan suspension in the plantar aspect of the right hindpaw. Three hours after carrageenan injection, paw withdrawal threshold was measured using the paw pressure test (Baseline). The 5 groups were then administered the following: • Group 1: vehicle (0.5% HPMC), i.p., solution (negative control); • Group 2: MIN-117 (0.01 mg/kg, i.p.) in 0.5% HPMC, suspension; • Group 3: MIN-117 (0.1 mg/kg, i.p.) in 0.5% HPMC, suspension; • Group 4: MIN-117 (1 mg/kg, i.p.) in 0.5% HPMC, suspension; and • Group 5: morphine (3 mg/kg, s.c.) in 0.9% NaCl, solution (positive control).
After administering vehicle, MIN-117, or morphine, the antihyperalgesic effect of the compounds was evaluated using the paw pressure test at 0 min. (T0), 30 min., 60 min., 120 min., and 240 min.
Vehicle and MIN-117 were administered intraperitoneally at 10 mL/kg. Morphine was subcutaneously administered at 5 mL/kg. Dosing and testing were performed in a random order by a blinded experimenter except for the morphine-treated group. Doses were expressed in terms of free active substance. Rats were sacrificed at the end of the experiment by CO2 inhalation pending subsequent removal by a certified company.
Results were assessed as: the paw withdrawal threshold (mean±s.e.m.) in grams of contact pressure for each group, calculated from individual paw withdrawal thresholds; the percentage of variation of the paw withdrawal threshold calculated from the mean value of the vehicle-treated group; and/or the percentage of activity. To determine a statistical effect of the test substance and the reference substance, data were analyzed by a non-parametrical test. The significance level was p<0.05.

[1] = 0.01 mg/kg i.p., 30 min, hydrochloride
[2] = 0.01 mg/kg i.p., 60 min, hydrochloride
[3] = 0.01 mg/kg i.p., 120 min, hydrochloride
[4] = 0.01 mg/kg i.p., 240 min, hydrochloride
[5] = 0.01 mg/kg i.p., Baseline, hydrochloride
[6] = 0.01 mg/kg i.p., T0 (baseline before dosing)
[7] = 0.01 mg/kg i.p., T0 (baseline before dosing), hydrochloride
[8] = 0.01 mg/kg i.p., T0 + 30 min, hydrochloride
[9] = 0.01 mg/kg i.p., T0 + 60 min, hydrochloride
[10] = 0.1 mg/kg i.p., 30 min, hydrochloride
[11] = 0.1 mg/kg i.p., 60 min, hydrochloride
[12] = 0.1 mg/kg i.p., 120 min, hydrochloride
[13] = 0.1 mg/kg i.p., 240 min, hydrochloride
[14] = 0.1 mg/kg i.p., Baseline, hydrochloride
[15] = 0.1 mg/kg i.p., T0 (baseline before dosing)

SMILES: Cc1nnc(-c2cc3c(OC[C@@H](O)CN4CCC(c5ccc(Cl)c(Cl)c5)CC4)cccc3o2)o1.Cl [MIN-117, (2S)-1-(4-(3,4-dichlorophenyl)piperidin-1-yl)-3-((2-(5-methyl-1,3,4-oxadiazol-2-yl)benzofuran-4-yl)oxy)propan-2-ol hydrochloride]
- Nociceptive threshold, control paw, individual rats [1]: 360 g (4×) and 380 g (3×) and 420 g and 340 g and 280 g
- Nociceptive threshold, injured paw, individual rats [1]: 180 g (3×) and 220 g and 160 g (2×) and 140 g (2×) and 200 g (2×)
- Nociceptive threshold, control paw, individual rats [2]: 380 g and 340 g (3×) and 320 g (2×) and 360 g (2×) and 420 g and 300 g
- Nociceptive threshold, injured paw, individual rats [2]: 220 g (3×) and 160 g (3×) and 180 g (2×) and 140 g (2×)
- Nociceptive threshold, control paw, individual rats [3]: 440 g and 360 g (2×) and 340 g and 320 g and 400 g (2×) and 420 g (2×) and 380 g
- Nociceptive threshold, injured paw, individual rats [3]: 300 g and 180 g (2×) and 160 g (2×) and 200 g (4×) and 220 g
- Nociceptive threshold, control paw, individual rats [4]: 340 g and 360 g (2×) and 380 g (2×) and 300 g and 320 g (3×) and 420 g
- Nociceptive threshold, injured paw, individual rats [4]: 200 g (3×) and 180 g (4×) and 160 g (2×) and 140 g
- Nociceptive threshold, control paw, individual rats [5]: 400 g (3×) and 380 g (3×) and 320 g and 360 g and 340 g (2×)
- Nociceptive threshold, injured paw, individual rats [5]: 240 g and 180 g (5×) and 200 g (2×) and 160 g (2×)
- % activity, injured paw [6]: 2%
- % variation vs control paw, injured paw [6]: −50%
- % variation vs vehicle-treated group, injured paw [6]: 2%
- Nociceptive threshold, control paw (mean ± s.e.m.) [7]: 370.0 ± 9.1 g and 370 g
- Nociceptive threshold, injured paw (mean ± s.e.m.) [7]: 186 ± 7.3 g and 186 g
- % activity, injured paw (0.01 mg/kg i.p., T0 + 30 min): −1%
- % variation vs control paw, injured paw (0.01 mg/kg i.p., T0 + 30 min): −51%
- % variation vs pre-drug threshold, injured paw (0.01 mg/kg i.p., T0 + 30 min): −5%
- Nociceptive threshold, control paw (mean ± s.e.m.) (0.01 mg/kg i.p., T0 + 30 min): 362 g
- % variation vs vehicle-treated group, injured paw [8]: −1% and 1%
- Nociceptive threshold, injured paw (mean ± s.e.m.) [8]: 176 ± 8.3 g and 176 g
- % activity, injured paw (0.01 mg/kg i.p., T0 + 60 min): −6%
- % variation vs control paw, injured paw (0.01 mg/kg i.p., T0 + 60 min): −49%
- % variation vs pre-drug threshold, injured paw (0.01 mg/kg i.p., T0 + 60 min): −4%
- Nociceptive threshold, control paw (mean ± s.e.m.) (0.01 mg/kg i.p., T0 + 60 min): 348 g
- % variation vs vehicle-treated group, injured paw [9]: −5% and 5%
- Nociceptive threshold, injured paw (mean ± s.e.m.) [9]: 178 ± 10.1 g and 178 g
- % activity, injured paw (0.01 mg/kg i.p., T0 + 120 min): 9%
- % variation vs control paw, injured paw (0.01 mg/kg i.p., T0 + 120 min): −48%
- % variation vs pre-drug threshold, injured paw (0.01 mg/kg i.p., T0 + 120 min): 8%
- % variation vs vehicle-treated group, injured paw (0.01 mg/kg i.p., T0 + 120 min): 8%
- Nociceptive threshold, control paw (mean ± s.e.m.) (0.01 mg/kg i.p., T0 + 120 min): 384 g
- Nociceptive threshold, injured paw (mean ± s.e.m.) (0.01 mg/kg i.p., T0 + 120 min, hydrochloride): 200 ± 12.6 g and 200 g
- % activity, injured paw (0.01 mg/kg i.p., T0 + 240 min): −5%
- % variation vs control paw, injured paw (0.01 mg/kg i.p., T0 + 240 min): −49%
- % variation vs pre-drug threshold, injured paw (0.01 mg/kg i.p., T0 + 240 min): −4%
- % variation vs vehicle-treated group, injured paw (0.01 mg/kg i.p., T0 + 240 min): −4%
- Nociceptive threshold, control paw (mean ± s.e.m.) (0.01 mg/kg i.p., T0 + 240 min): 350 g
- Nociceptive threshold, injured paw (mean ± s.e.m.) (0.01 mg/kg i.p., T0 + 240 min, hydrochloride): 178 ± 6.3 g and 178 g
- Effect on injured paw withdrawal threshold vs vehicle-treated group (in words) (0.01 mg/kg i.p., time course 30-240 min): did not induce any significant increase
- Nociceptive threshold, control paw, individual rats [10]: 440 g and 320 g (3×) and 460 g and 300 g and 360 g and 340 g (3×)
- Nociceptive threshold, injured paw, individual rats [10]: 200 g (4×) and 160 g (2×) and 180 g (4×)
- Nociceptive threshold, control paw, individual rats [11]: 360 g (3×) and 300 g (2×) and 420 g and 400 g and 320 g (2×) and 340 g
- Nociceptive threshold, injured paw, individual rats [11]: 180 g (2×) and 140 g and 160 g (3×) and 200 g (3×) and 220 g
- Nociceptive threshold, control paw, individual rats [12]: 380 g and 280 g and 420 g (2×) and 300 g and 340 g (3×) and 360 g (2×)
- Nociceptive threshold, injured paw, individual rats [12]: 160 g (3×) and 140 g and 220 g and 200 g (2×) and 180 g (3×)
- Nociceptive threshold, control paw, individual rats [13]: 400 g (2×) and 320 g and 340 g and 280 g and 360 g (3×) and 380 g and 300 g
- Nociceptive threshold, injured paw, individual rats [13]: 180 g (3×) and 160 g (3×) and 140 g and 220 g (2×) and 200 g
- Nociceptive threshold, control paw, individual rats [14]: 420 g (2×) and 380 g (2×) and 400 g (2×) and 360 g (2×) and 340 g and 320 g
- Nociceptive threshold, injured paw, individual rats [14]: 200 g (3×) and 180 g (3×) and 160 g (4×)
- % activity, injured paw [15]: −2%
- % variation vs control paw, injured paw [15]: −53%
- % variation vs vehicle-treated group, injured paw [15]: −2%
- Nociceptive threshold, control paw (mean ± s.e.m.) (0.1 mg/kg i.p., T0 (baseline before dosing), hydrochloride): 378.0 ± 10.5 g and 378 g
